The target of one assay is Aβ peptides. The settings on record: cited from earlier work.
The target in another assay is T1, wt Aβ40 peptide (Homo sapiens, UniProt P05067).
T1 construct: Aβ(1–40) and Aβ(1–42), here abbreviated Aβ40 and Aβ42; purchased AlexoTech AB (Umeå, Sweden)
Description: Tyr10 intrinsic fluorescence quenching titration with AgNO3, Morrison equation fit. The settings on record: 20 mM MES buffer, 20 °C, read-out: Mean KD^App value. Format: binding. Here is the method: A Jobin Yvon Horiba Fluorolog 3 fluorescence spectrophotometer (Longjumeau, France) was used to record the fluorescence emission intensity at 305 nm (excitation wavelength 276 nm) for samples of 10 µM Aβ peptide in 20 mM MES buffer, using a quartz cuvette with 4 mm path length at 20 °C. Measurements were carried out at pH 7.2 for different Aβ variants, i.e. Aβ40, Aβ40(NoHis) mutant, Aβ40(H6A) mutant, and Aβ(4–40). For Aβ40, measurements were carried out also at pH 5.3, and at pH 7.2 in the presence of 50 mM SDS detergent. AgNO3 was titrated to the samples using stock solutions of 1 mM, 2 mM, and 10 mM. The measured tyrosine fluorescence intensities were plotted against the concentration of Ag^+ ions, and dissociation constants were evaluated by fitting the data curves to Eq. (1), i.e. the Morrison Equation [94]:1 I=I0+I∞-I0/2·Aβ·KD+Ag+Aβ-KD+Ag+Aβ^2-4·Ag·Aβ
Here, I0 is the initial fluorescence intensity with no added Ag^+ ions, I∞ is the steady-state intensity at the end of the titration, [Ag] is the concentration of added Ag^+ ions, KD is the dissociation constant, and [Aβ] is the concentration of Aβ peptide. […] Adding a linear term for the fluorescence quenching effect of free Ag^+ ions was considered unnecessary. […]
It is previously known that Ag^+ ions can quench the intrinsic fluorescence of amino acids such as tyrosines, including the Tyr10 residue in Aβ peptides. […]

The target in a further assay is T2, Aβ40 peptide (Homo sapiens, UniProt P05067).
T2 construct: Aβ(1–40) and Aβ(1–42), here abbreviated Aβ40 and Aβ42; purchased AlexoTech AB (Umeå, Sweden)
T2 sequence (P05067 672-711 limits assumed): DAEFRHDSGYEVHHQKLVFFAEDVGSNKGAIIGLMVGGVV
Description: CD spectroscopy on Aβ secondary structure. Particulars: 10 µM Aβ40, 20 mM phosphate buffer pH 7.3, 16–256 µM AgNO3, 20 °C. Here is the method: Circular dichroism (CD) spectroscopy was performed with a Chirascan CD instrument (Applied Photophysics Ltd., U.K.) using a quartz cuvette with 2 mm pathlength containing 600 µL of 10 µM Aβ40 peptide in 20 mM phosphate buffer, pH 7.3. CD spectra were recorded at 20 °C between 190 and 260 nm, with 0.5 nm step size. One sample contained only Aβ40 in buffer, while another sample contained also 50 mM SDS detergent, in order to mimic a membrane environment. To both samples, AgNO3 was added in steps of 16 µM, 56 µM, and 256 µM. The Chirascan Pro-Data v.4.4.1 software (Applied Photophysics Ltd., U.K.) was used to process the recorded spectra with an eight points smoothing filter (Savitzky-Golay).
Figure 3 CD spectra of 10 μM Aβ40 peptide in 20 mM phosphate buffer, pH 7.3. AgNO3 was titrated to the peptide, either in (A): buffer only, or (B): with 50 mM SDS present. Black: Aβ40 in buffer. Orange: + 50 mM SDS (in B only). Red: + 16 µM AgNO3. Green: + 56 µM AgNO3. Blue: + 256 µM AgNO3.

The target of a further assay is T3, Aβ40 peptide fibrils (Homo sapiens, UniProt P05067).
T3 construct: Aβ(1–40) and Aβ(1–42), here abbreviated Aβ40 and Aβ42; purchased AlexoTech AB (Umeå, Sweden)
T3 sequence (P05067 672-711 limits assumed): as above
Description: AFM imaging of Aβ40 aggregates after 72 h incubation. Particulars: 30 µM AgNO3, 10 µM Aβ40, 72 h, 37 °C, 5 mM MES pH 7.3. Here is the method: Samples for AFM imaging were produced by incubating 10 µM Aβ40 peptides in 5 mM MES buffer, pH 7.3, for 72 h at 37 °C with continuous shaking at 350 rpm together with different amounts of AgNO3, i.e. 0 µM; 2.5 µM; 5 µM; and 30 µM (corresponding to Ag^+:Aβ ratios of 0:1; 1:4; 1:2; and 3:1, respectively). The incubated samples were placed as 1 µL droplets on fresh silicon wafers (Siegert Wafer GmbH, Germany). After 2 min, 10 µL of Milli-Q water was added to the droplets, and then a lint-free wipe was used to remove all excess fluid. Next, the wafers were left to air-dry in a container, covered to protect from dust, and later the same day AFM images were recorded. A neaSNOM AFM unit (Neaspec GmbH, Germany) was used, running in tapping mode (Ω: 280 kHz, tapping amplitude 50–55 nm) and equipped with Pt/Ir-coated monolithic ARROW-NCPt Si tips (NanoAndMore GmbH, Germany) where the tip radius was less than 10 nm. Both topographic and mechanical phase images were recorded for 2.5 × 2.5 µm scanning areas (pixel size 200 × 200) with a scan speed of 2.5 ms/pixel. The images were minimally processed to perform basic plane levelling using the Gwyddion software.
Figure 4 AFM images for 10 µM Aβ40 peptides together with different concentrations of AgNO3, incubated with agitation for 72 h at 37 °C in 5 mM MES buffer, pH 7.3. (A) 0 µM AgNO3; (B) 2.5 µM AgNO3; (C) 5 µM AgNO3; (D) 30 µM AgNO3. […]

For assay [1], the target named is T4, Aβ42 oligomers (Homo sapiens, UniProt P05067).
T4 construct: Synthetic lyophilized wildtype (wt) Aβ(1–42) peptide, abbreviated Aβ42; purchased JPT Peptide Technologies GmbH (Germany); host or cells: chemical synthesis
T4 sequence (P05067 672-713 limits assumed): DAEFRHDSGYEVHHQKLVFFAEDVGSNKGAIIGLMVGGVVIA
Description: BN-PAGE analysis of SDS-stabilized Aβ42 oligomers. The settings on record: 10, 100, 500 µM AgNO3, 100–120 µM Aβ42, 0.2% SDS, 37 °C 24 h. The method, then:
(§1) The Aβ42 monomers were then used to prepare SDS-stabilized Aβ42 oligomers of approximately tetrameric size, using a previously published protocol[83] with the following modifications: the oligomers were prepared in D2O, at four-fold lower peptide concentration, and without the original dilution step[85]. The reaction mixture (100–120 μM Aβ42 in D2O-based PBS, containing 0.2% (6.9 mM) SDS) was incubated at 37 °C for 24 h together with either 0, 10, 100, or 500 µM AgNO3, respectively, and then flash-frozen in liquid N2 and stored at –20 °C for later analysis.
Homogeneous solutions of SDS-stabilized Aβ42 oligomers, prepared as described in Section “Preparation of Aβ42 oligomers” with either 0, 10, 100, or 500 µM silver nitrate, were analyzed with BN-PAGE using the Invitrogen system (ThermoFisher Scientific, USA). For this purpose, 4–16% Bis–Tris Novex gels (ThermoFisher Scientific, USA) were loaded with 10 μL of samples containing either Aβ42 monomers or Aβ42 oligomers with increasing concentrations of silver, calibrated against the Amersham High Molecular Weight calibration kit for native electrophoresis (GE Healthcare, USA). The gel was first run at 4 °C for 90 min and then stained with the Pierce Silver Staining kit according to the manufacturer’s instructions (ThermoFisher Scientific, USA). […]

Assay [2] addresses T4, Aβ42 oligomers. The assay can be described thus: FTIR spectroscopy of SDS-stabilized Aβ42 oligomers. The settings on record: 0–500 µM AgNO3; FTIR with BN-PAGE. Here is the method: as §1
Fourier-transform infrared (FTIR) spectra of SDS-stabilized Aβ42 oligomers (prepared as described in Section “Preparation of Aβ42 oligomers” with 0–500 µM AgNO3) were recorded in transmission mode on a Tensor 37 FTIR spectrometer (Bruker Optik GmbH., Germany) equipped with a […] and a liquid nitrogen-cooled MCT detector. The unit was continuously purged with dry air during the measurements. […] The sample shuttle allowed sample and reference spectra to be recorded without opening the chamber. FTIR spectra were recorded at room temperature in the 1900–800 cm^–1 range, using 6 mm aperture, 2 cm^–1 resolution, a zero-filling factor of two, and 300 scans for both background and sample spectra. […] All spectra were analyzed and plotted using the OPUS 5.5 software. Second derivatives were calculated with a 17 cm^–1 smoothing factor. […]

Where two headings read alike, the source gives them in different places.

The text below walks through data of article PMC11825922, “Molecular interactions, structural effects, and binding affinities between silver ions (Ag^+) and amyloid beta (Aβ) peptides” (Scientific Reports, 2025).

T1 sequence (P05067 672-711 limits assumed): as the sequence (P05067 672-711 limits assumed) above

Turning to `[Cu+2]` [Cu^2+], the “Binding affinity” value on Aβ peptides was “sub-micromolar”. On Aβ peptides (fluorescence measurements, read-out: Binding affinity for the Aβ·Cu^2+ complex, corrected for buffer effects), the Kd was roughly 0.001 µM.

As to `[Ni+2]` [Ni^2+], the Kd at Aβ peptides (read-out: Binding affinity) is 1 to 50 µM.

Regarding `[Zn+2]` [Zn^2+], the Kd on Aβ peptides (read-out: Binding affinity) is 1 to 50 µM.

For the molecule monovalent silver ions (Ag^+), the Kd is 25 µM at wt Aβ40 peptide (Aβ40 pH 7.2 + 50 mM SDS) and 25 µM on wt Aβ40 peptide (Aβ40 pH 7.2, 10 µM peptide). On Aβ40 peptide, the “Effect on Aβ40 secondary structure (CD)” value was “slightly increased β-sheet structure”. Besides, the “Effect on Aβ40 fibril morphology (AFM)” value on Aβ40 peptide fibrils was “much more tangled together”. Moreover, at Aβ42 oligomers [1], the “Average sizes, amounts and size distributions of Aβ42 oligomers versus without silver” value is listed as “approximately the same”. The “Effect on size, secondary structure, β-sheet planarity and number of strands of Aβ42 oligomers” value on Aβ42 oligomers [2] is on record as “no significant effect”.
